Measurements published in ChEMBL document CHEMBL3864160, “Discovery of fluorobenzimidazole HCV NS5A inhibitors” (Bioorg Med Chem Lett, 2016).

experiment: Inhibition of Hepatitis C virus genotype 1a H77 replicon NS5A transfected in human HuH7 cells assessed as decrease in replication of viral replicon after 4 days by luciferase reporter gene assay; assay type: cell-based, Hepatitis C virus (isolate H77); conditions: Huh-7, 96 h

Which EC50 does the source give for COC(=O)N[C@H](C(=O)N1CCC[C@H]1c1nc2c(C)c(-c3ccc(-c4ccc5[nH]c([C@@H]6CCCN6C(=O)[C@@H](NC(=O)OC)C(C)C)nc5c4C)cc3)ccc2[nH]1)C(C)C here?
The EC50 was 0.038 nM.

Which EC50 does the source give for COC(=O)N[C@H](C(=O)N1CCC[C@H]1c1nc2cc(-c3ccc(-c4cnc5[nH]c([C@@H]6CCCN6C(=O)[C@@H](NC(=O)OC)C(C)C)nc5c4)cc3)cnc2[nH]1)C(C)C here?
The EC50 was 5.58 nM.

Which EC50 does the source give for COC(=O)N[C@H](C(=O)N1CCC[C@H]1c1nc2cc(-c3ccc(-c4cc5nc([C@@H]6CCCN6C(=O)[C@@H](NC(=O)OC)C(C)C)[nH]c5cc4F)cc3)c(F)cc2[nH]1)C(C)C here?
Its EC50 is 0.076 nM.

With COC(=O)N[C@H](C(=O)N1CCC[C@H]1c1nc2c(F)c(-c3ccc(-c4ccc5[nH]c([C@@H]6CCCN6C(=O)[C@@H](NC(=O)OC)C(C)C)nc5c4F)cc3)ccc2[nH]1)C(C)C as the compound, how does the EC50 read?
The EC50 was 0.129 nM.

Which EC50 does the source give for COC(=O)N[C@H](C(=O)N1CCC[C@H]1c1nc2ccc(-c3ccc(-c4ccc5nc([C@@H]6CCCN6C(=O)[C@@H](NC(=O)OC)C(C)C)[nH]c5c4)cc3)cc2[nH]1)C(C)C here?
The EC50 was 0.272 nM.

Which EC50 does the source give for COC(=O)N[C@H](C(=O)N1CCC[C@H]1c1nc2cc(-c3ccc(-c4cc(F)c5[nH]c([C@@H]6CCCN6C(=O)[C@@H](NC(=O)OC)C(C)C)nc5c4)cc3)cc(F)c2[nH]1)C(C)C here?
The EC50 was 0.579 nM.

experiment: Inhibition of Hepatitis C virus genotype 1b Con1 replicon NS5A transfected in human HuH7 cells assessed as decrease in replication of viral replicon after 4 days by luciferase reporter gene assay; assay type: cell-based, Hepatitis C virus (isolate Con1); conditions: Huh-7, 96 h

For COC(=O)N[C@H](C(=O)N1CCC[C@H]1c1nc2c(C)c(-c3ccc(-c4ccc5[nH]c([C@@H]6CCCN6C(=O)[C@@H](NC(=O)OC)C(C)C)nc5c4C)cc3)ccc2[nH]1)C(C)C, which EC50 is on record?
Its EC50 is 0.014 nM.

Which EC50 does the source give for COC(=O)N[C@H](C(=O)N1CCC[C@H]1c1nc2cc(-c3ccc(-c4cnc5[nH]c([C@@H]6CCCN6C(=O)[C@@H](NC(=O)OC)C(C)C)nc5c4)cc3)cnc2[nH]1)C(C)C here?
The EC50 was 1.54 nM.

For COC(=O)N[C@H](C(=O)N1CCC[C@H]1c1nc2cc(-c3ccc(-c4cc5nc([C@@H]6CCCN6C(=O)[C@@H](NC(=O)OC)C(C)C)[nH]c5cc4F)cc3)c(F)cc2[nH]1)C(C)C, which EC50 is on record?
Its EC50 is less than 0.03 nM.

With COC(=O)N[C@H](C(=O)N1CCC[C@H]1c1nc2c(F)c(-c3ccc(-c4ccc5[nH]c([C@@H]6CCCN6C(=O)[C@@H](NC(=O)OC)C(C)C)nc5c4F)cc3)ccc2[nH]1)C(C)C as the compound, how does the EC50 read?
Its EC50 is 0.013 nM.

With COC(=O)N[C@H](C(=O)N1CCC[C@H]1c1nc2ccc(-c3ccc(-c4ccc5nc([C@@H]6CCCN6C(=O)[C@@H](NC(=O)OC)C(C)C)[nH]c5c4)cc3)cc2[nH]1)C(C)C as the compound, how does the EC50 read?
The EC50 was 0.022 nM.

With COC(=O)N[C@H](C(=O)N1CCC[C@H]1c1nc2cc(-c3ccc(-c4cc(F)c5[nH]c([C@@H]6CCCN6C(=O)[C@@H](NC(=O)OC)C(C)C)nc5c4)cc3)cc(F)c2[nH]1)C(C)C as the compound, how does the EC50 read?
The EC50 was less than 0.03 nM.

experiment: Inhibition of Hepatitis C virus genotype 2a replicon NS5A transfected in human HuH7 cells assessed as decrease in replication of viral replicon after 4 days by luciferase reporter gene assay; assay type: cell-based, Hepatitis C virus subtype 2a; conditions: Huh-7, 96 h

With COC(=O)N[C@H](C(=O)N1CCC[C@H]1c1nc2c(C)c(-c3ccc(-c4ccc5[nH]c([C@@H]6CCCN6C(=O)[C@@H](NC(=O)OC)C(C)C)nc5c4C)cc3)ccc2[nH]1)C(C)C as the compound, how does the EC50 read?
Its EC50 is 28 nM.

Which EC50 does the source give for COC(=O)N[C@H](C(=O)N1CCC[C@H]1c1nc2cc(-c3ccc(-c4cnc5[nH]c([C@@H]6CCCN6C(=O)[C@@H](NC(=O)OC)C(C)C)nc5c4)cc3)cnc2[nH]1)C(C)C here?
The EC50 was greater than 100 nM.

For COC(=O)N[C@H](C(=O)N1CCC[C@H]1c1nc2cc(-c3ccc(-c4cc5nc([C@@H]6CCCN6C(=O)[C@@H](NC(=O)OC)C(C)C)[nH]c5cc4F)cc3)c(F)cc2[nH]1)C(C)C, which EC50 is on record?
The EC50 was 31 nM.

For COC(=O)N[C@H](C(=O)N1CCC[C@H]1c1nc2c(F)c(-c3ccc(-c4ccc5[nH]c([C@@H]6CCCN6C(=O)[C@@H](NC(=O)OC)C(C)C)nc5c4F)cc3)ccc2[nH]1)C(C)C, which EC50 is on record?
The EC50 was 40.2 nM.

For COC(=O)N[C@H](C(=O)N1CCC[C@H]1c1nc2ccc(-c3ccc(-c4ccc5nc([C@@H]6CCCN6C(=O)[C@@H](NC(=O)OC)C(C)C)[nH]c5c4)cc3)cc2[nH]1)C(C)C, which EC50 is on record?
Its EC50 is 75.5 nM.

For COC(=O)N[C@H](C(=O)N1CCC[C@H]1c1nc2cc(-c3ccc(-c4cc(F)c5[nH]c([C@@H]6CCCN6C(=O)[C@@H](NC(=O)OC)C(C)C)nc5c4)cc3)cc(F)c2[nH]1)C(C)C, which EC50 is on record?
Its EC50 is 13.8 nM.

experiment: Inhibition of Hepatitis C virus genotype 2b replicon NS5A transfected in human HuH7 cells assessed as decrease in replication of viral replicon after 4 days by luciferase reporter gene assay; assay type: cell-based, Hepatitis C virus subtype 2b; conditions: Huh-7, 96 h

For COC(=O)N[C@H](C(=O)N1CCC[C@H]1c1nc2c(C)c(-c3ccc(-c4ccc5[nH]c([C@@H]6CCCN6C(=O)[C@@H](NC(=O)OC)C(C)C)nc5c4C)cc3)ccc2[nH]1)C(C)C, which EC50 is on record?
Its EC50 is 0.32 nM.

Which EC50 does the source give for COC(=O)N[C@H](C(=O)N1CCC[C@H]1c1nc2cc(-c3ccc(-c4cnc5[nH]c([C@@H]6CCCN6C(=O)[C@@H](NC(=O)OC)C(C)C)nc5c4)cc3)cnc2[nH]1)C(C)C here?
The EC50 was 6.5 nM.

Which EC50 does the source give for COC(=O)N[C@H](C(=O)N1CCC[C@H]1c1nc2cc(-c3ccc(-c4cc5nc([C@@H]6CCCN6C(=O)[C@@H](NC(=O)OC)C(C)C)[nH]c5cc4F)cc3)c(F)cc2[nH]1)C(C)C here?
Its EC50 is less than 0.03 nM.

For COC(=O)N[C@H](C(=O)N1CCC[C@H]1c1nc2c(F)c(-c3ccc(-c4ccc5[nH]c([C@@H]6CCCN6C(=O)[C@@H](NC(=O)OC)C(C)C)nc5c4F)cc3)ccc2[nH]1)C(C)C, which EC50 is on record?
The EC50 was 0.222 nM.

Which EC50 does the source give for COC(=O)N[C@H](C(=O)N1CCC[C@H]1c1nc2ccc(-c3ccc(-c4ccc5nc([C@@H]6CCCN6C(=O)[C@@H](NC(=O)OC)C(C)C)[nH]c5c4)cc3)cc2[nH]1)C(C)C here?
The EC50 was 0.06 nM.

With COC(=O)N[C@H](C(=O)N1CCC[C@H]1c1nc2cc(-c3ccc(-c4cc(F)c5[nH]c([C@@H]6CCCN6C(=O)[C@@H](NC(=O)OC)C(C)C)nc5c4)cc3)cc(F)c2[nH]1)C(C)C as the compound, how does the EC50 read?
Its EC50 is 0.516 nM.

experiment: Inhibition of Hepatitis C virus genotype 3a replicon NS5A transfected in human HuH7 cells assessed as decrease in replication of viral replicon after 4 days by luciferase reporter gene assay; assay type: cell-based, Hepatitis C virus subtype 3a; conditions: Huh-7, 96 h

For COC(=O)N[C@H](C(=O)N1CCC[C@H]1c1nc2c(C)c(-c3ccc(-c4ccc5[nH]c([C@@H]6CCCN6C(=O)[C@@H](NC(=O)OC)C(C)C)nc5c4C)cc3)ccc2[nH]1)C(C)C, which EC50 is on record?
Its EC50 is 0.104 nM.

Which EC50 does the source give for COC(=O)N[C@H](C(=O)N1CCC[C@H]1c1nc2cc(-c3ccc(-c4cnc5[nH]c([C@@H]6CCCN6C(=O)[C@@H](NC(=O)OC)C(C)C)nc5c4)cc3)cnc2[nH]1)C(C)C here?
The EC50 was greater than 100 nM.

With COC(=O)N[C@H](C(=O)N1CCC[C@H]1c1nc2cc(-c3ccc(-c4cc5nc([C@@H]6CCCN6C(=O)[C@@H](NC(=O)OC)C(C)C)[nH]c5cc4F)cc3)c(F)cc2[nH]1)C(C)C as the compound, how does the EC50 read?
Its EC50 is 0.444 nM.

With COC(=O)N[C@H](C(=O)N1CCC[C@H]1c1nc2c(F)c(-c3ccc(-c4ccc5[nH]c([C@@H]6CCCN6C(=O)[C@@H](NC(=O)OC)C(C)C)nc5c4F)cc3)ccc2[nH]1)C(C)C as the compound, how does the EC50 read?
The EC50 was 0.645 nM.

Which EC50 does the source give for COC(=O)N[C@H](C(=O)N1CCC[C@H]1c1nc2ccc(-c3ccc(-c4ccc5nc([C@@H]6CCCN6C(=O)[C@@H](NC(=O)OC)C(C)C)[nH]c5c4)cc3)cc2[nH]1)C(C)C here?
Its EC50 is 1.12 nM.

For COC(=O)N[C@H](C(=O)N1CCC[C@H]1c1nc2cc(-c3ccc(-c4cc(F)c5[nH]c([C@@H]6CCCN6C(=O)[C@@H](NC(=O)OC)C(C)C)nc5c4)cc3)cc(F)c2[nH]1)C(C)C, which EC50 is on record?
The EC50 was 6.49 nM.

experiment: Inhibition of Hepatitis C virus genotype 4a replicon NS5A transfected in human HuH7 cells assessed as decrease in replication of viral replicon after 4 days by luciferase reporter gene assay; assay type: cell-based, Hepatitis C virus subtype 4a; conditions: Huh-7, 96 h

With COC(=O)N[C@H](C(=O)N1CCC[C@H]1c1nc2c(C)c(-c3ccc(-c4ccc5[nH]c([C@@H]6CCCN6C(=O)[C@@H](NC(=O)OC)C(C)C)nc5c4C)cc3)ccc2[nH]1)C(C)C as the compound, how does the EC50 read?
The EC50 was 0.014 nM.

With COC(=O)N[C@H](C(=O)N1CCC[C@H]1c1nc2cc(-c3ccc(-c4cnc5[nH]c([C@@H]6CCCN6C(=O)[C@@H](NC(=O)OC)C(C)C)nc5c4)cc3)cnc2[nH]1)C(C)C as the compound, how does the EC50 read?
Its EC50 is 1.1 nM.

For COC(=O)N[C@H](C(=O)N1CCC[C@H]1c1nc2cc(-c3ccc(-c4cc5nc([C@@H]6CCCN6C(=O)[C@@H](NC(=O)OC)C(C)C)[nH]c5cc4F)cc3)c(F)cc2[nH]1)C(C)C, which EC50 is on record?
Its EC50 is 0.008 nM.

With COC(=O)N[C@H](C(=O)N1CCC[C@H]1c1nc2c(F)c(-c3ccc(-c4ccc5[nH]c([C@@H]6CCCN6C(=O)[C@@H](NC(=O)OC)C(C)C)nc5c4F)cc3)ccc2[nH]1)C(C)C as the compound, how does the EC50 read?
The EC50 was 0.33 nM.

Which EC50 does the source give for COC(=O)N[C@H](C(=O)N1CCC[C@H]1c1nc2ccc(-c3ccc(-c4ccc5nc([C@@H]6CCCN6C(=O)[C@@H](NC(=O)OC)C(C)C)[nH]c5c4)cc3)cc2[nH]1)C(C)C here?
The EC50 was 0.062 nM.

Which EC50 does the source give for COC(=O)N[C@H](C(=O)N1CCC[C@H]1c1nc2cc(-c3ccc(-c4cc(F)c5[nH]c([C@@H]6CCCN6C(=O)[C@@H](NC(=O)OC)C(C)C)nc5c4)cc3)cc(F)c2[nH]1)C(C)C here?
Its EC50 is 0.04 nM.

experiment: Inhibition of Hepatitis C virus genotype 6a replicon NS5A transfected in human HuH7 cells assessed as decrease in replication of viral replicon after 4 days by luciferase reporter gene assay; assay type: cell-based, Hepatitis C virus subtype 6a; conditions: Huh-7, 96 h

Which EC50 does the source give for COC(=O)N[C@H](C(=O)N1CCC[C@H]1c1nc2c(C)c(-c3ccc(-c4ccc5[nH]c([C@@H]6CCCN6C(=O)[C@@H](NC(=O)OC)C(C)C)nc5c4C)cc3)ccc2[nH]1)C(C)C here?
Its EC50 is 7.05 nM.

For COC(=O)N[C@H](C(=O)N1CCC[C@H]1c1nc2cc(-c3ccc(-c4cc5nc([C@@H]6CCCN6C(=O)[C@@H](NC(=O)OC)C(C)C)[nH]c5cc4F)cc3)c(F)cc2[nH]1)C(C)C, which EC50 is on record?
The EC50 was 0.274 nM.

With COC(=O)N[C@H](C(=O)N1CCC[C@H]1c1nc2c(F)c(-c3ccc(-c4ccc5[nH]c([C@@H]6CCCN6C(=O)[C@@H](NC(=O)OC)C(C)C)nc5c4F)cc3)ccc2[nH]1)C(C)C as the compound, how does the EC50 read?
Its EC50 is 4.75 nM.
